In patent US10457707B2, “Substituted urea depsipeptide analogs as activators of the CLPP endopeptidase” (priority 2015, dated 2019):
Converted amounts (≈) assume the structure as drawn. Read-outs that look alike come from different tables or passages of the source. *1 amine or outer side, *2 acyl side, *3 side chain or, on linkers, in order; H or OH if unused. Where a SMILES comes first, the peptide text is derived from it. Bridges are numbered along the chain shown (N, C = ends). [ ]: non-standard residue; d: D form. The star is where a group is joined. NH(1,3-benzodioxol-5-yl) = c1cc2c(cc1N*)OCO2; Phe(3,5-F2) = N[C@@H](Cc1cc(F)cc(F)c1)C(=O)O; NH(1-Me-indolin-5-yl) = CN1CCc2cc(N*)ccc21; Morpholine(3S-CO) = O=C(O)[C@@H]1COCCN1; NH(4-Cl-2-F-phenyl) = Fc1cc(Cl)ccc1N*; Pro(4R-Me) = C[C@H]1CN[C@H](C(=O)O)C1; Hyp = O=C(O)[C@@H]1C[C@@H](O)CN1; NH(4-Et-phenyl) = CCc1ccc(N*)cc1; NMeT = CN[C@H](C(=O)O)[C@@H](C)O; NH(4-Me-phenyl) = Cc1ccc(N*)cc1; aThr = C[C@H](O)[C@H](N)C(=O)O; Pip = O=C(O)[C@@H]1CCCCN1; X2 = CN1CCc2ccc(N*)cc21; CO = O=C([*:1])[*:2]

Legend:
Sa-ClpP = biological target: T1, Sa-ClpP (Staphylococcus aureus, UniProt Q2G036); assay: ADEP displacement fluorescence polarization assay (FP probe ADEP 2591); format: binding
T1 construct: made in house; host or cells: E. coli BL21(DE3)
T1 sequence (Q2G036 1-195): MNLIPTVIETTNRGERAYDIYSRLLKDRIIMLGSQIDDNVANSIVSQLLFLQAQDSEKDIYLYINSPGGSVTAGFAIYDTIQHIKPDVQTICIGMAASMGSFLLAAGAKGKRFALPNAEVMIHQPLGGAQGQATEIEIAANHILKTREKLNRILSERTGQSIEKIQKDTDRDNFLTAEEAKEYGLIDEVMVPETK
Experimental: A fluorescence polarization (FP) assay was used to determine the activity of the disclosed compounds in displacing an ADEP analogue from ClpP. Briefly, the assay was performed in black 384 well, flat bottom, low volume plates (Greiner Bio-One, Monroe, N.C., catalog #784076). 20 μL of a pre-equilibrated (1 hr, room temperature) master mix (15 μM Sa-ClpP, 2% DMSO (v/v) and 50 nM FP probe in Tris*HCl, pH 8.0)) was pipetted into each well using a Well-Mate (Thermo Scientific, Waltham, Mass.). Sa-ClpP was prepared as described above for the ClpP activation assay. The FP probe was ADEP 2591 (structure shown above). The ADEP 2591 comprises a TAMRA fluorophore linked to a core based on modified ADEP 2378 via a short alkyl linker. Using pin transfer, approximately 0.4 μL (2% v/v DMSO) of each compound or control was added per well. After addition of compounds and controls, plates were allowed to incubate for an additional 120 minutes at room temperature. All assays were performed in triplicate. Polarization was monitored using an EnVision Multilabel reader (Perkin-Elmer, Waltham, Mass.) by exciting the FP probe at 530±25 nm, and monitoring fluorescence intensity of both parallel and perpendicular polarized light at 579±25 nm. Readout was in millipolarization units (mP).
Data collected was normalized to values obtained from positive (200 μM ADEP 2378) or negative (DMSO) controls. Curves were fit with non-linear regression using the equation “log [inhibitor] vs. Response-variable slope (four parameters)-symmetrical” in the program Prism 6 (GraphPad Software, La Jolla, Calif. USA, www.graphpad.com). The structures for ADEP 2378 and ADEP 2591 are shown above. ADEP 2378 is (E)-N—((S)-1-(((2R,6S,8aS,14aS,20S,23aS)-2,6-dimethyl-5,8,14,19,23-pentaoxooctadecahydro-1H,5H,14H,19H-pyrido[2,1-i]dipyrrolo[2,1-c:2′,1′-1][1]oxa[4,7,10,13]tetraazacyclohexadecin-20-yl)amino)-1-oxo-3-phenylpropan-2-yl)pent-2-enamide. ADEP 2591 is 5-(3-(3-((6S,9S,11aS,17S,20aS)-6,10-dimethyl-5,8,11,16,20-pentaoxo-17-((S)-2-((E)-pent-2-enamido)-3-phenylpropanamido)hexadecahydro-1H,5H,16H-dipyrrolo[2,1-c:2′,1′-1][1]oxa[4,7,10,13]tetraazacyclohexadecin-9-yl)propyl)thioureido)-2-(6-(dimethylamino)-3-(dimethyliminio)-3H-xanthen-9-yl)benzoate.

[1] = system: Bacillus subtilis, ATCC 23857; assay: Minimal inhibitory concentration assay (microbroth dilution); format: cell-based
Method in brief: (§1)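 CLSI broth microdilution; 2-fold series from 200 μM final; inoculum ~10^5 cfu/mL; 37 °C, aerobic, overnight; visual MIC = lowest conc. without growth. The ClpP-inactivated USA 300 strain is the comparator for ClpP-dependent killing.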

[2] = system: Staphylococcus aureus, ATCC 29213; assay: as above; format: cell-based; settings: ATCC29213, read-out: Minimal Inhibitory Concentrations S. aureus ATCC 29213
Method in brief: as §1

[3] = system: Staphylococcus aureus, NRS70; assay: as above; format: cell-based
Method in brief: as §1

[4] = system: Streptococcus pyogenes, ATCC 700294; assay: as above; format: cell-based
Method in brief: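 CLSI broth microdilution: two-fold serial compound dilutions in appropriate broth, inoculated and incubated aerobically overnight at 37° C. MIC read visually as lowest concentration preventing bacterial growth.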

[5] = Bacillus subtilis, ATCC23857, read-out: Minimal Inhibitory Concentrations B. subtilis ATCC 23857
[6] = Staphylococcus aureus, NRS70, read-out: Minimal Inhibitory Concentrations S. aureus NRS70
[7] = Streptococcus pyogenes, ATCC700294, read-out: Minimal Inhibitory Concentrations S. pyogenes ATCC 700294
[8] = Bacillus subtilis, ATCC23857; read-out: Minimal Inhibitory Concentrations B. subtilis ATCC 23857
[9] = Staphylococcus aureus, NRS70; read-out: Minimal Inhibitory Concentrations S. aureus NRS70
[10] = Streptococcus pyogenes, ATCC700294; read-out: Minimal Inhibitory Concentrations S. pyogenes ATCC 700294

Row | SMILES | IC50 (Sa-ClpP) [µM] | MIC [1, 5] [µM] | MIC [2] [µM] | MIC [3, 6] [µM] | MIC [4, 7] [µM] | MIC [1, 8] [µM] | MIC [3, 9] [µM] | MIC [4, 10] [µM]
1 | C[C@@H]1C[C@H]2C(=O)O[C@@H](C)[C@H](NC(=O)[C@H](Cc3cc(F)cc(F)c3)NC(=O)Nc3ccc4c(c3)N(C)CC4)C(=O)N3CCC[C@H]3C(=O)N3CCCC[C@H]3C(=O)N[C@@H](C)C(=O)N2C1 [Compound 321, (S)-3-(3,5-difluorophenyl)-2-(3-(1-methylindolin-6-yl)ureido)-N-((2R,6S,8aS,14aS,20S,21S,23aS)-2,6,21-trimethyl-5,8,14,19,23-pentaoxooctadecahydro-1H,5H,14H,19H-pyrido[2,1-i]dipyrrolo[2,1-c:2′,1′-l][1]oxa[4,7,10,13]tetraazacyclo-hexadecin-20-yl)propanamide] ({X2-CO}-[Phe(3,5-F2)][aThr]P[Pip]A[Pro(4R-Me)]; ester 2-C) | 8.23 ± 0.7 | 0.313 (≈ 0.266 µg/mL) | 0.313 (≈ 0.266 µg/mL) | 0.156 (≈ 0.132 µg/mL) | 0.313 (≈ 0.266 µg/mL) |  |  | 
2 | C[C@@H]1C[C@H]2C(=O)OC[C@H](NC(=O)[C@H](Cc3ccccc3)NC(=O)Nc3ccc4c(c3)OCO4)C(=O)N3CCC[C@H]3C(=O)N3CCCC[C@H]3C(=O)N[C@@H](C)C(=O)N2C1 [Compound 194, (S)-2-(3-(benzo[d][1,3]dioxol-5-yl)ureido)-N-((2R,6S,8aS,14aS,20S,23aS)-2,6-dimethyl-5,8,14,19,23-pentaoxooctadecahydro-1H,5H,14H,19H-pyrido[2,1-i]dipyrrolo[2,1-c:2′,1′-l][1]oxa[4,7,10,13]tetraazacyclohexadecin-20-yl)-3-phenylpropanamide] | 8 ± 0.6 |  | 1.56 (≈ 1.23 µg/mL) |  |  | 0.39 (≈ 0.307 µg/mL) | 0.39 (≈ 0.307 µg/mL) | < 0.2
3 | C[C@@H]1C[C@H]2C(=O)O[C@@H](C)[C@H](NC(=O)[C@H](Cc3cc(F)cc(F)c3)NC(=O)Nc3ccc4c(c3)OCO4)C(=O)N3C[C@H](O)C[C@H]3C(=O)N3CCOC[C@H]3C(=O)N[C@@H](C)C(=O)N2C1 [Compound 319, (S)-2-(3-(benzo[d][1,3]dioxol-5-yl)ureido)-3-(3,5-difluorophenyl)-N-((6aS,8R,12S,13S,15aS,17R,21S,23aS)-8-hydroxy-13,17,21-trimethyl-6,11,15,20,23-pentaoxooctadecahydro-6H,11H,15H-[1,4]oxazino[3,4-i]dipyrrolo[2,1-c:2′,1′-l][1]oxa[4,7,10,13]tetraazacyclo-hexadecin-12-yl)propanamide] ({NH(1,3-benzodioxol-5-yl)-CO}-[Phe(3,5-F2)][aThr][Hyp][Morpholine(3S-CO)]A[Pro(4R-Me)]; ester 2-C) | 7.75 ± 0.6 |  | 2.5 (≈ 2.14 µg/mL) |  |  | 10 (≈ 8.56 µg/mL) | 5 (≈ 4.28 µg/mL) | 0.313 (≈ 0.268 µg/mL)
4 | C[C@@H]1C[C@H]2C(=O)O[C@@H](C)[C@H](NC(=O)[C@H](Cc3cc(F)cc(F)c3)NC(=O)Nc3ccc4c(c3)CCN4C)C(=O)N3CCC[C@H]3C(=O)N3CCCC[C@H]3C(=O)N[C@@H](C)C(=O)N2C1 [Compound 310, (S)-3-(3,5-difluorophenyl)-2-(3-(1-methylindolin-5-yl)ureido)-N-((2R,6S,8aS,14aS,20S,21S,23aS)-2,6,21-trimethyl-5,8,14,19,23-pentaoxooctadecahydro-1H,5H,14H,19H-pyrido[2,1-i]dipyrrolo[2,1-c:2′,1′-l][1]oxa[4,7,10,13]tetraazacyclo-hexadecin-20-yl)propanamide] ({NH(1-Me-indolin-5-yl)-CO}-[Phe(3,5-F2)][aThr]P[Pip]A[Pro(4R-Me)]; ester 2-C) | 6.9 ± 0.3 | 0.078 (≈ 0.0662 µg/mL) | 0.078 (≈ 0.0662 µg/mL) | 0.156 (≈ 0.132 µg/mL) | 0.156 (≈ 0.132 µg/mL) |  |  | 
5 | C[C@@H]1C[C@H]2C(=O)O[C@@H](C)[C@H](NC(=O)[C@H](Cc3cc(F)cc(F)c3)NC(=O)Nc3ccc(Cl)cc3F)C(=O)N3CCC[C@H]3C(=O)N3CCCC[C@H]3C(=O)N[C@@H](C)C(=O)N2C1 [Compound 307, (S)-2-(3-(4-chloro-2-fluorophenyl)ureido)-3-(3,5-difluorophenyl)-N-((2R,6S,8aS,14aS,20S,21S,23aS)-2,6,21-trimethyl-5,8,14,19,23-pentaoxooctadecahydro-1H,5H,14H,19H-pyrido[2,1-i]dipyrrolo[2,1-c:2′,1′-l][1]oxa[4,7,10,13]tetraazacyclo-hexadecin-20-yl)propanamide] ({NH(4-Cl-2-F-phenyl)-CO}-[Phe(3,5-F2)][aThr]P[Pip]A[Pro(4R-Me)]; ester 2-C) | 7.8 ± 0.4 |  | 0.039 (≈ 0.033 µg/mL) |  |  | 0.039 (≈ 0.033 µg/mL) | 0.039 (≈ 0.033 µg/mL) | 0.156 (≈ 0.132 µg/mL)
6 | Cc1ccc(NC(=O)N[C@@H](Cc2cc(F)cc(F)c2)C(=O)N[C@@H]2C(=O)N3CCC[C@H]3C(=O)N(C)[C@@H]([C@@H](C)O)C(=O)N[C@@H](C)C(=O)N3C[C@H](C)C[C@H]3C(=O)O[C@H]2C)cc1 [Compound 38, (S)-3-(3,5-difluorophenyl)-N-((2R,6S,9S,11aS,17S,18S,20aS)-9-((R)-1-hydroxyethyl)-2,6,10,18-tetramethyl-5,8,11,16,20-pentaoxohexadecahydro-1H,5H,16H-dipyrrolo[2,1-c:2′,1′-l][1]oxa[4,7,10,13]tetraazacyclohexadecin-17-yl)-2-(3-(p-tolyl)ureido)propanamide] ({NH(4-Me-phenyl)-CO}-[Phe(3,5-F2)][aThr]P[NMeT]A[Pro(4R-Me)]; ester 2-C) | 6.52 ± 0.3 | 0.05 (≈ 0.0406 µg/mL) | 0.05 (≈ 0.0406 µg/mL) | 0.05 (≈ 0.0406 µg/mL) | 0.1 (≈ 0.0812 µg/mL) |  |  | 
7 | CCc1ccc(NC(=O)N[C@@H](Cc2cc(F)cc(F)c2)C(=O)N[C@@H]2C(=O)N3CCC[C@H]3C(=O)N(C)[C@@H]([C@@H](C)O)C(=O)N[C@@H](C)C(=O)N3C[C@H](C)C[C@H]3C(=O)O[C@H]2C)cc1 [Compound 42, (S)-3-(3,5-difluorophenyl)-2-(3-(4-ethylphenyl)ureido)-N-((2R,6S,9S,11aS,17S,18S,20aS)-9-((R)-1-hydroxyethyl)-2,6,10,18-tetramethyl-5,8,11,16,20-pentaoxohexadecahydro-1H,5H,16H-dipyrrolo[2,1-c:2′,1′-l][1]oxa[4,7,10,13]tetraazacyclohexadecin-17-yl)propanamide] ({NH(4-Et-phenyl)-CO}-[Phe(3,5-F2)][aThr]P[NMeT]A[Pro(4R-Me)]; ester 2-C) | 7.12 ± 0.2 |  | 0.05 (≈ 0.0413 µg/mL) |  |  | 0.01 (≈ 0.00826 µg/mL) | 0.02 (≈ 0.0165 µg/mL) | 0.05 (≈ 0.0413 µg/mL)
8 | C[C@@H]1C[C@H]2C(=O)OC[C@H](NC(=O)[C@H](Cc3cc(F)cc(F)c3)NC(=O)Nc3ccc4c(c3)OCO4)C(=O)N3CCC[C@H]3C(=O)N3CCCC[C@H]3C(=O)N[C@@H](C)C(=O)N2C1 [Compound 195, (S)-2-(3-(benzo[d][1,3]dioxol-5-yl)ureido)-3-(3,5-difluorophenyl)-N-((2R,6S,8aS,14aS,20S,23aS)-2,6-dimethyl-5,8,14,19,23-pentaoxooctadecahydro-1H,5H,14H,19H-pyrido[2,1-i]dipyrrolo[2,1-c:2′,1′-l][1]oxa[4,7,10,13]tetraazacyclohexadecin-20-yl)propanamide] | 5.8 ± 0.2 |  | 0.6 (≈ 0.494 µg/mL) |  |  | 0.3 (≈ 0.247 µg/mL) | 0.6 (≈ 0.494 µg/mL) | 0.3 (≈ 0.247 µg/mL)
